Test results reported in BindingDB's records for doi:10.1016/s0960-894x(03)00014-3 (Merck Research Laboratories, 2003).

Assay: Inhibition of T-cell proliferation was determined by a human T-cell assay

With `COc1ccccc1C(=O)NC[C@]1(c2ccccc2)CC[C@H](OC(=O)Nc2ccccc2)CC1` [Phenyl-carbamic acid 4-[(2-methoxy-benzoylamino)-methyl]-4-phenyl-cyclohexyl ester] the IC50 was 0.237 µM.
In the case of `COc1ccccc1C(=O)NC[C@]1(c2ccccc2)CC[C@H](NC(=O)Cc2ccccc2)CC1` [2-Methoxy-N-(1-phenyl-4-phenylacetylamino-cyclohexylmethyl)-benzamide], the IC50 is reported as 0.609 µM.
With `CCCCNC(=O)O[C@H]1CC[C@](CNC(=O)c2ccccc2OC)(c2ccccc2)CC1` [Butyl-carbamic acid 4-[(2-methoxy-benzoylamino)-methyl]-4-phenyl-cyclohexyl ester] the IC50 was 0.32 µM.
Work on `C=CCN(C)C(=O)O[C@H]1CC[C@](CNC(=O)c2ccccc2OC)(c2ccccc2)CC1` [Allyl-methyl-carbamic acid 4-[(2-methoxy-benzoylamino)-methyl]-4-phenyl-cyclohexyl ester] yielded an IC50 of 0.659 µM.
`C=CCNC(=O)O[C@H]1CC[C@](CNC(=O)c2ccccc2OC)(c2ccccc2)CC1` [Allyl-carbamic acid 4-[(2-methoxy-benzoylamino)-methyl]-4-phenyl-cyclohexyl ester] gave an IC50 of 1.1 µM.
For `COc1ccccc1C(=O)NC[C@]1(c2ccccc2)CC[C@H](OC(N)=O)CC1` [Carbamic acid 4-[(2-methoxy-benzoylamino)-methyl]-4-phenyl-cyclohexyl ester], the IC50 was 0.519 µM.
With `C/C=C/C(=O)N[C@H]1CC[C@](CNC(=O)c2ccccc2OC)(c2ccccc2)CC1` [N-[4-((E)-But-2-enoylamino)-1-phenyl-cyclohexylmethyl]-2-methoxy-benzamide] the IC50 was 0.399 µM.
Work on `C=CCNC(=O)O[C@H]1CC[C@@](CNC(=O)c2ccccc2OC)(c2ccccc2)CC1` [Allyl-carbamic acid 4-[(2-methoxy-benzoylamino)-methyl]-4-phenyl-cyclohexyl ester] yielded an IC50 of 0.361 µM.
Compound `C=CCNC(=O)N[C@H]1CC[C@@](CNC(=O)c2ccccc2OC)(c2ccccc2)CC1` [N-[4-(3-Allyl-ureido)-1-phenyl-cyclohexylmethyl]-2-methoxy-benzamide] has an IC50 of 0.676 µM.
With `COc1ccccc1C(=O)NC[C@]1(c2ccccc2)CC[C@@H](NC(=O)SC)CC1` [{4-[(2-Methoxy-benzoylamino)-methyl]-4-phenyl-cyclohexyl}-thiocarbamic acid methyl ester] the IC50 was 0.618 µM.
With `CNC(=O)O[C@H]1CC[C@](CNC(=O)c2ccccc2OC)(c2ccccc2)CC1` [Methyl-carbamic acid 4-[(2-methoxy-benzoylamino)-methyl]-4-phenyl-cyclohexyl ester] the IC50 was 1.26 µM.
For `COCCNC(=O)O[C@H]1CC[C@@](CNC(=O)c2ccccc2OC)(c2ccccc2)CC1` [(2-Methoxy-ethyl)-carbamic acid 4-[(2-methoxy-benzoylamino)-methyl]-4-phenyl-cyclohexyl ester], the IC50 was 1 µM.
With `COc1ccccc1C(=O)NC[C@]1(c2ccccc2)CC[C@H](NC(=O)CCc2ccccc2)CC1` [2-Methoxy-N-[1-phenyl-4-(3-phenyl-propionylamino)-cyclohexylmethyl]-benzamide] the IC50 was 0.2 µM.
With `COc1ccccc1C(=O)NCC1(c2ccccc2)CCC(=O)CC1` [2-Methoxy-N-(4-oxo-1-phenyl-cyclohexylmethyl)-benzamide] the IC50 was 1.2 µM.
`COc1ccccc1C(=O)NC[C@]1(c2ccccc2)CC[C@@H](OC(=O)NC(C)C)CC1` [Isopropyl-carbamic acid 4-[(2-methoxy-benzoylamino)-methyl]-4-phenyl-cyclohexyl ester] showed an IC50 of 0.222 µM.
For `CNC(=O)O[C@H]1CC[C@@](CNC(=O)c2ccccc2OC)(c2ccccc2)CC1` [Methyl-carbamic acid 4-[(2-methoxy-benzoylamino)-methyl]-4-phenyl-cyclohexyl ester], the IC50 was 0.195 µM.
Compound `COc1ccccc1C(=O)NC[C@]1(c2ccccc2)CC[C@H](OC(=O)NCc2ccccc2)CC1` [Benzyl-carbamic acid 4-[(2-methoxy-benzoylamino)-methyl]-4-phenyl-cyclohexyl ester] has an IC50 of 0.915 µM.
`CCCNC(=O)O[C@H]1CC[C@@](CNC(=O)c2ccccc2OC)(c2ccccc2)CC1` [Propyl-carbamic acid 4-[(2-methoxy-benzoylamino)-methyl]-4-phenyl-cyclohexyl ester] gave an IC50 of 0.273 µM.
For `COc1ccccc1C(=O)NC[C@]1(c2ccccc2)CC[C@H](NC(=O)c2ccccc2)CC1` [N-(4-Benzoylamino-1-phenyl-cyclohexylmethyl)-2-methoxy-benzamide], the IC50 was 0.154 µM.
Compound `COc1ccccc1C(=O)NC[C@]1(c2ccccc2)CC[C@H](OC(=O)NC(C)C)CC1` [Isopropyl-carbamic acid 4-[(2-methoxy-benzoylamino)-methyl]-4-phenyl-cyclohexyl ester] has an IC50 of 0.892 µM.
For `C=C(C)CNC(=O)O[C@H]1CC[C@@](CNC(=O)c2ccccc2OC)(c2ccccc2)CC1` [(2-Methyl-allyl)-carbamic acid 4-[(2-methoxy-benzoylamino)-methyl]-4-phenyl-cyclohexyl ester], the IC50 was 0.688 µM.
Compound `C=CCNC(=O)N[C@H]1CC[C@](CNC(=O)c2ccccc2OC)(c2ccccc2)CC1` [N-[4-(3-Allyl-ureido)-1-phenyl-cyclohexylmethyl]-2-methoxy-benzamide] has an IC50 of 0.43 µM.
In the case of `COc1ccccc1C(=O)NC[C@]1(c2ccccc2)CC[C@@H](OC(=O)NCCO)CC1` [(2-Hydroxy-ethyl)-carbamic acid 4-[(2-methoxy-benzoylamino)-methyl]-4-phenyl-cyclohexyl ester], the IC50 is reported as 1.79 µM.
With `C=CCOC(=O)N[C@H]1CC[C@](CNC(=O)c2ccccc2OC)(c2ccccc2)CC1` [{4-[(2-Methoxy-benzoylamino)-methyl]-4-phenyl-cyclohexyl}-carbamic acid allyl ester] the IC50 was 0.354 µM.
For `C=CCOC(=O)N[C@H]1CC[C@@](CNC(=O)c2ccccc2OC)(c2ccccc2)CC1` [{4-[(2-Methoxy-benzoylamino)-methyl]-4-phenyl-cyclohexyl}-carbamic acid allyl ester], the IC50 was 0.539 µM.
Work on `CCCCNC(=O)O[C@H]1CC[C@@](CNC(=O)c2ccccc2OC)(c2ccccc2)CC1` [Butyl-carbamic acid 4-[(2-methoxy-benzoylamino)-methyl]-4-phenyl-cyclohexyl ester] yielded an IC50 of 0.688 µM.
With `COC(=O)N[C@H]1CC[C@@](CNC(=O)c2ccccc2OC)(c2ccccc2)CC1` [{4-[(2-Methoxy-benzoylamino)-methyl]-4-phenyl-cyclohexyl}-carbamic acid methyl ester] the IC50 was 1.06 µM.
